Measurements taken from patent US20100022483A1, “Substituted Tetracycline Compounds” (Paratek Pharmaceuticals, Inc., priority 2008, published 2010).
≈ marks a conversion by molar mass, not a printed value. Read-outs that look alike come from different tables or passages of the source.

Legend:
[1] = in vitro; format: cell-based; details: Chinese hamster, Cytotox. CHO-K1
Method: (§1) COS-1 and CHO-K1 cell suspensions were prepared, seeded into 96-well tissue culture treated black-walled microtiter plates (density determined by cell line), and incubated overnight at 37° C., in 5% CO2 and approximately 95% humidity. The following day, serial dilutions of compound were prepared under sterile conditions and transferred to cell plates. Cell/Compound plates were incubated under the above conditions for 24 hours. Following the incubation period, media/compound was aspirated and 50 μl of resazurin (0.042 mg/ml in PBS w/Ca and Mg) is added. The plates were then incubated under the above conditions for 2 hours and then placed in the dark at room temperature for an additional 30 minutes. Fluorescence measurements were taken (excitation 535 nm, emission 590 nm). The IC50 (concentration of compound causing 50% growth inhibition) was then calculated. Table 3 includes IC50 data for several substituted tetracycline compounds.

[2] = system: 3T3 fibroblast cells; experiment: In vitro phototoxicity assay (neutral red; UV light-treated vs dark control plates); format: cell-based; details: for Photo Toxicity UV Tox50: UV light 50 minutes; for Photo Toxicity Dark Tox50: dark control plate
Method: 3T3 fibroblast cells were harvested and plated at a concentration of 1×10^5 cells/mL and the plates were incubated overnight at 37° C., in 5% CO2 and approximately 95% humidity. On the following day the medium was removed from the plates and replaced with Hanks' Balanced Salt Solution (HBSS). Compound dilutions were made in HBSS and added to the plates. For each compound tested, a duplicate plate was prepared that was not exposed to light as a control for compound toxicity. Plates were then incubated in a dark drawer (for controls), or under UV light (meter reading of 1.6-1.8 mW/cm^2) for 50 minutes. Cells were then washed with HBSS, fresh medium was added, and plates were incubated overnight as described above. The following day neutral red was added as an indicator of cell viability. The plates were then incubated for an additional 3 hours. Cells were then washed with HBSS and blotted on absorbent paper to remove excess liquid. A solution of 50% EtOH, 10% glacial acetic acid was added and after 20 minutes incubation the plate's absorbance at 535 nm was read using a Wallac Victor 5 spectrophotometer. The phototoxicity reflected the difference between the light-treated and control cultures. Table 3 includes phototoxicity (μM) data for several substituted tetracycline compounds.

[3] = system: gram negative bacteria; experiment: In vitro anti-bacterial activity assay (broth dilution MIC), gram negative bacteria; format: cell-based, E. coli
Description: (§2) Bacterial infections may be caused by a wide variety of gram positive and gram negative bacteria. Some of the compounds of the invention are useful as antibiotics against organisms which are resistant and/or sensitive to other tetracycline compounds. The antibiotic activity of the tetracycline compounds of the invention may by using the in vitro standard broth dilution method described in Waitz, J. A., CLSI, Document M7-A2, vol. 10, no. 8, pp. 13-20, 2nd edition, Villanova, Pa. (1990).
(§3) The following assay was used to determine the efficacy of the tetracycline compounds against gram positive and gram negative bacteria. 2 mg of each compound was dissolved in 100 μl of DMSO. […] The tetracycline compound solutions were diluted to 50 μL volumes, with a test compound concentration of 0.098 μg/ml. Optical density (OD) determinations were made from fresh log-phase broth cultures of the test strains. Dilutions were made to achieve a final cell density of […] CFU/ml. At OD=1, cell densities for different genera were approximately:
(§4) 50 μl of the cell suspensions were added to each well of microtiter plates. The final cell density was approximately 5×10^5 CFU/ml. These plates were incubated at 35° C. in an ambient air incubator for approximately 18 hours. The plates were read with a microplate reader and were visually inspected when necessary. The MIC was defined as the lowest concentration of the tetracycline compound that inhibits growth. Table 3 includes MIC data for several substituted tetracycline compounds.

[4] = Mammalian cytotoxicity assay (resazurin), COS-1 cells; format: cell-based; details: African green monkey, read-out: Cytotox. COS-1
Method: as §1

[5] = system: gram positive bacteria; experiment: In vitro anti-bacterial activity assay (broth dilution MIC), gram positive bacteria; format: cell-based, S. aureus; details: 18 h
Description: as §2, §3, §4

[6] = Escherichia coli, 18 h, E. coli D1 209, read-out: Median MIC's G− E. coli D1 209
[7] = Escherichia coli, 18 h, E. coli MG 1655, read-out: Median MIC's G− E. coli MG 1655
[8] = Escherichia coli, ATCC25922, 18 h, E. coli ATCC 25922, read-out: Median MIC's G− E. coli ATCC 25922
[9] = Pseudomonas aeruginosa, 18 h, P. aeruginosa K201 PAO6609, read-out: Median MIC's G− P. aeruginosa K201 PAO6609
[10] = Staphylococcus aureus, S. aureus MRSA5, read-out: Median MIC's G+ S. aureus MRSA5
[11] = Staphylococcus aureus, S. aureus RN450, read-out: Median MIC's G+ S. aureus RN450
[12] = Streptococcus pneumoniae, S. pneumoniae 157E-Strep, read-out: Median MIC's G+ S. pneumoniae 157E-Strep

Structure (SMILES) | IC50 at 24 h [1] [µM] | Photo Toxicity UV Tox50 [2] [µM] | Photo Toxicity Dark Tox50 [2] [µM] | MIC [3, 6] [µg/mL] | MIC [3, 7] [µg/mL] | MIC [3, 8] [µg/mL] | MIC [3, 9] [µg/mL] | IC50 at 24 h [4] [µM] | MIC [5, 10] [µg/mL] | MIC [5, 11] [µg/mL] | MIC [5, 12] [µg/mL] | MIC ([3]; Escherichia coli, 18 h, read-out: Median MIC's G− E. coli D1 209, E. coli D1 209) [µg/mL] | MIC ([3]; Escherichia coli, 18 h, read-out: Median MIC's G− E. coli MG 1655, E. coli MG 1655) [µg/mL] | MIC ([3]; Escherichia coli, ATCC25922, 18 h, read-out: Median MIC's G− E. coli ATCC 25922, E. coli ATCC 25922) [µg/mL] | MIC ([3]; Pseudomonas aeruginosa, 18 h, read-out: Median MIC's G− P. aeruginosa K201 PAO6609, P. aeruginosa K201 PAO6609) [µg/mL]
COCCCNC(=O)c1cccc(-c2ccc(O)c3c2CC2CC4[C@H](N(C)C)C(O)=C(C(N)=O)C(=O)[C@@]4(O)C(O)=C2C3=O)c1 (some centres unmarked) [DD] | > 15.3 | >152.62 | >152.62 | 64 (≈ 106 µM) | 64 (≈ 106 µM) | 64 (≈ 106 µM) | 64 (≈ 106 µM) | > 15.3 | 2 (≈ 3.3 µM) | 0.0625 (≈ 0.103 µM) | 0.06 (≈ 0.0991 µM) |  |  |  | 
CN(C)[C@@H]1C(O)=C(C(N)=O)C(=O)[C@@]2(O)C(O)=C3C(=O)c4c(O)ccc(-c5cccc(C(=O)NCc6ccco6)c5)c4C[C@H]3C[C@@H]12 [Y] | > 14.6 | >146.13 | >146.13 | 64 (≈ 104 µM) | 64 (≈ 104 µM) | 64 (≈ 104 µM) | 64 (≈ 104 µM) | > 14.6 | 1 (≈ 1.63 µM) | 0.06 (≈ 0.0978 µM) | 0.06 (≈ 0.0978 µM) |  |  |  | 
CC(=O)N1CCN(CC(=O)c2ccc(O)c3c2C[C@H]2C[C@H]4[C@H](N(C)C)C(O)=C(C(N)=O)C(=O)[C@@]4(O)C(O)=C2C3=O)CC1 [BS] | > 145 | >144.92 | >144.92 | 64 (≈ 110 µM) | 32 (≈ 54.9 µM) | 64 (≈ 110 µM) | 64 (≈ 110 µM) | > 145 | 8 (≈ 13.7 µM) | 1 (≈ 1.72 µM) | 1 (≈ 1.72 µM) |  |  |  | 
CN(C)CCCN(C)Cc1cccc(-c2ccc(O)c3c2C[C@H]2C[C@H]4[C@H](N(C)C)C(O)=C(C(N)=O)C(=O)[C@@]4(O)C(O)=C2C3=O)c1 [CU] | > 124 | >123.6 | >123.6 | 32 (≈ 51.7 µM) | 8 (≈ 12.9 µM) | 8 (≈ 12.9 µM) | 32 (≈ 51.7 µM) | > 124 | 16 (≈ 25.9 µM) | 0.5 (≈ 0.808 µM) | 0.125 (≈ 0.202 µM) |  |  |  | 
CN(C)CCN(C)C(=O)c1cccc(-c2ccc(O)c3c2C[C@H]2C[C@H]4[C@H](N(C)C)C(O)=C(C(N)=O)C(=O)[C@@]4(O)C(O)=C2C3=O)c1 [R] | > 137 | >137.36 | >137.36 |  |  |  |  | > 137 | 64 (≈ 103 µM) | 0.5 (≈ 0.808 µM) | 0.25 (≈ 0.404 µM) | 64 (≈ 103 µM) | 15 (≈ 24.2 µM) | 32 (≈ 51.7 µM) | 64 (≈ 103 µM)
CN(C)[C@@H]1C(O)=C(C(N)=O)C(=O)[C@@]2(O)C(O)=C3C(=O)c4c(O)ccc(-c5cccc(C(=O)NCCN)c5)c4C[C@H]3C[C@@H]12 [N] | > 46.8 | 95.14 | >150.87 | 64 (≈ 111 µM) | 64 (≈ 111 µM) | 64 (≈ 111 µM) | 64 (≈ 111 µM) | > 46.8 | 64 (≈ 111 µM) | 2 (≈ 3.47 µM) | 16 (≈ 27.7 µM) |  |  |  | 
CN(C)[C@@H]1C(O)=C(C(N)=O)C(=O)[C@@]2(O)C(O)=C3C(=O)c4c(O)ccc(-c5coc(CN6CCCCC6)c5)c4C[C@H]3C[C@@H]12 [BF] | > 42.9 | >138.34 | >138.34 | 0.5 (≈ 0.866 µM) | 1 (≈ 1.73 µM) | 0.25 (≈ 0.433 µM) | 64 (≈ 111 µM) | > 42.9 | 1 (≈ 1.73 µM) | 0.06 (≈ 0.104 µM) | 0.06 (≈ 0.104 µM) |  |  |  | 
CN(C)CCCCN(C)Cc1cccc(-c2ccc(O)c3c2C[C@H]2C[C@H]4[C@H](N(C)C)C(O)=C(C(N)=O)C(=O)[C@@]4(O)C(O)=C2C3=O)c1 [CW] | > 132 | >132.05 | >132.05 | 4 (≈ 6.32 µM) | 2 (≈ 3.16 µM) | 2 (≈ 3.16 µM) | 64 (≈ 101 µM) | > 132 | 8 (≈ 12.6 µM) | 0.06 (≈ 0.0948 µM) | 0.06 (≈ 0.0948 µM) |  |  |  | 
C=CCNCC(=O)c1ccc(O)c2c1C[C@H]1C[C@H]3[C@H](N(C)C)C(O)=C(C(N)=O)C(=O)[C@@]3(O)C(O)=C1C2=O [BV] | 27.6 | >121.69 | >121.69 | 64 (≈ 125 µM) | 16 (≈ 31.3 µM) | 32 (≈ 62.6 µM) | 64 (≈ 125 µM) | > 122 | 32 (≈ 62.6 µM) | 4 (≈ 7.82 µM) | 1 (≈ 1.95 µM) |  |  |  | 
CN(C)CCN(C)Cc1cccc(-c2ccc(O)c3c2C[C@H]2C[C@H]4[C@H](N(C)C)C(O)=C(C(N)=O)C(=O)[C@@]4(O)C(O)=C2C3=O)c1 [CT] | > 126 | >126.03 | >126.03 | 4 (≈ 6.61 µM) | 2 (≈ 3.31 µM) | 2 (≈ 3.31 µM) | 64 (≈ 106 µM) | > 126 | 4 (≈ 6.61 µM) | 0.0625 (≈ 0.103 µM) | 0.06 (≈ 0.0992 µM) |  |  |  | 
